Source: ChEMBL document CHEMBL1641443, “Design, synthesis and biological evaluation of small molecule inhibitors of CD4-gp120 binding based on virtual screening” (Bioorg Med Chem, 2011)

Test system: Human immunodeficiency virus 1
Assay: Antiviral activity against recombinant HIV1 YU2 in Cf2Th-CCR5 cells assessed as viral infectivity by luciferase assasy relative to JRC-II-191; further: test concentration or dose not given here
Type: functional, isolate YU2

With `NC(=O)C1CCN(CCC(=O)Nc2ccc(Br)cc2)CC1` the “fold change (FC)” value was 0.
In the case of `CC1(C)CC(=O)c2cc(C(=O)Nc3ccc(Cl)cc3)c(=O)[nH]c2C1`, the “fold change (FC)” value is reported as 0.
For `CCN=C(S)N1CCN(CC(=O)Nc2ccc(Br)cc2)CC1`, the “fold change (FC)” value was 0.
In the case of `Nc1ccc(C(=O)CC(=O)Nc2ccc(Cl)cc2)cc1`, the “fold change (FC)” value is reported as 0.
In the case of `N=c1oc2cc(O)ccc2cc1C(=O)Nc1ccc(Cl)cc1`, the “fold change (FC)” value is reported as 0.
For `O=C(CN1CCCCCC1)Nc1ccc(Br)cc1`, the “fold change (FC)” value was 0.
With `CC1CCCN(CCC(=O)Nc2ccc(Br)cc2)C1` (stereo not drawn) the “fold change (FC)” value was 0.
For `Cc1ccc(N(C)C)cc1NC(=O)COc1ccc(Cl)cc1`, the “fold change (FC)” value was 0.
In the case of `CC1(C)Cc2c(sc(NC(=O)C(=O)Nc3ccc(Cl)c(F)c3)c2C#N)C(C)(C)N1`, the “fold change (FC)” value is reported as 0.
`Nc1ncc(CNC(=O)C(=O)Nc2ccc(Cl)c(F)c2)cn1` was tested, and the “fold change (FC)” value was 0.
With `CNS(=O)(=O)Cc1ccc(CNC(=O)C(=O)Nc2ccc(Cl)c(F)c2)cc1` the “fold change (FC)” value was 0.
With `CC(NC(=O)C(=O)Nc1ccc(Cl)c(F)c1)c1ccc(S(N)(=O)=O)cc1` (stereo not drawn) the “fold change (FC)” value was 0.
With `CCN(CC)C(CNC(=O)C(=O)Nc1ccc(Cl)c(F)c1)CC(C)C` (stereo not drawn) the “fold change (FC)” value was 0.
In the case of `CN(C)C(CNC(=O)C(=O)Nc1ccc(Cl)c(F)c1)c1ccco1` (stereo not drawn), the “fold change (FC)” value is reported as 0.
`CN(C)C(CNC(=O)C(=O)Nc1ccc(Cl)c(F)c1)N1CCCC1` (stereo not drawn) was tested, and the “fold change (FC)” value was 0.
`O=C(NCC(c1ccco1)N1CCCC1)C(=O)Nc1ccc(Cl)c(F)c1` (stereo not drawn) was tested, and the “fold change (FC)” value was 0.
With `O=C(NCC(c1ccc(Cl)cc1)N1CCCC1)C(=O)Nc1ccc(Cl)c(F)c1` (stereo not drawn) the “fold change (FC)” value was 0.4.
`CN1CCN(C(CNC(=O)C(=O)Nc2ccc(Cl)c(F)c2)c2cccs2)CC1` (stereo not drawn) was tested, and the “fold change (FC)” value was 0.
In the case of `CN1CCN(C(CNC(=O)C(=O)Nc2ccc(Cl)c(F)c2)c2ccccc2Cl)CC1` (stereo not drawn), the “fold change (FC)” value is reported as 0.11.
In the case of `CC(NC(=O)C(=O)Nc1ccc(Cl)c(F)c1)C(c1ccccc1Cl)N1CCOCC1` (stereo not drawn), the “fold change (FC)” value is reported as 0.
In the case of `O=C(NCc1ccccc1CN1CCOCC1)C(=O)Nc1ccc(Cl)c(F)c1`, the “fold change (FC)” value is reported as 0.5.
`COc1cc(NC(=O)C(=O)NC2CC(C)(C)NC(C)(C)C2)ccc1Cl` was tested, and the “fold change (FC)” value was 0.
With `CC(C)Oc1cc(NC(=O)C(=O)NC2CC(C)(C)NC(C)(C)C2)ccc1Cl` the “fold change (FC)” value was 0.
With `CC1(C)CC(NC(=O)C(=O)Nc2ccc(Cl)c(OCc3ccccc3)c2)CC(C)(C)N1` the “fold change (FC)” value was 0.
With `CC1(C)CC(NC(=O)C(=O)Nc2cccc(OCc3ccccc3)c2)CC(C)(C)N1` the “fold change (FC)” value was 0.
With `CC(C)COc1cc(Cl)ccc1NC(=O)C(=O)NC1CC(C)(C)NC(C)(C)C1` the “fold change (FC)” value was 0.
With `CC1(C)CC(NC(=O)C(=O)Nc2ccc(N=[N+]=[N-])cc2)CC(C)(C)N1` the “fold change (FC)” value was 0.
For `CC(C)c1ccccc1NC(=O)C(=O)NC1CC(C)(C)NC(C)(C)C1`, the “fold change (FC)” value was 0.
In the case of `CC(C)c1cccc(NC(=O)C(=O)NC2CC(C)(C)NC(C)(C)C2)c1`, the “fold change (FC)” value is reported as 0.
`CC1(C)CC(NC(=O)C(=O)Nc2c[nH]c3ncccc23)CC(C)(C)N1` was tested, and the “fold change (FC)” value was 0.
In the case of `CC1(C)CC(NC(=O)C(=O)Nc2ccc3ccccc3c2)CC(C)(C)N1`, the “fold change (FC)” value is reported as 0.
For `CC1(C)CC(NC(=O)C(=O)Nc2ccc(-n3cc(CCc4ccccc4)nn3)cc2)CC(C)(C)N1`, the “fold change (FC)” value was 0.
In the case of `CC1(C)CC(NC(=O)C(=O)Nc2ccc(-n3cc(-c4ccccc4)nn3)cc2)CC(C)(C)N1`, the “fold change (FC)” value is reported as 0.
For `CC1(C)CC(NC(=O)C(=O)Nc2ccc(-n3cc(CCCCCO)nn3)cc2)CC(C)(C)N1`, the “fold change (FC)” value was 0.
In the case of `O=C(COc1ccc(Cl)cc1)Nc1cc(=O)[nH]c(=O)[nH]1`, the “fold change (FC)” value is reported as 0.
For `Cc1cc(SCC(=O)Nc2ccc(Cl)cc2)nc(=O)[nH]1`, the “fold change (FC)” value was 0.
With `O=C(Nc1ccc(Cl)cc1)c1cc2c([nH]c1=O)CCCC2` the “fold change (FC)” value was 0.
For `O=C(Nc1ccc(Cl)cc1)Nc1ncnc2[nH]cnc12`, the “fold change (FC)” value was 0.
For `O=C(Nc1cc[nH]c(=O)n1)c1sc2cc(Cl)ccc2c1Cl`, the “fold change (FC)” value was 0.
In the case of `O=C(Nc1ccc2c(c1)C(=O)NC2=O)c1ccc(Cl)c(Cl)c1`, the “fold change (FC)” value is reported as 0.
`C[C@@H](Sc1nc(=O)cc(N)[nH]1)C(=O)Nc1ccc(Cl)cc1` was tested, and the “fold change (FC)” value was 0.
In the case of `O=C(COc1ccc(Cl)cc1)Nc1ccc2[nH]c(=O)[nH]c2c1`, the “fold change (FC)” value is reported as 0.
With `O=C(CSc1nc(=O)[nH]c2c1CCCC2)Nc1ccc(Cl)cc1` the “fold change (FC)” value was 0.
In the case of `CN1CCC(NC(=O)Nc2ccc(Cl)cc2Cl)CC1`, the “fold change (FC)” value is reported as 0.
With `CN1CCCN(C(=O)COc2ccc(Cl)cc2)CC1` the “fold change (FC)” value was 0.
For `Cc1cccc(-c2cc(C(=O)Nc3ccc(Cl)cc3)n[nH]2)c1O`, the “fold change (FC)” value was 0.
With `O=C(Nc1ccc(Cl)cc1)c1cc(-n2cnnc2)[nH]n1` the “fold change (FC)” value was 0.
For `CC1(C)OC(=O)N(CCC(=O)Nc2ccc(Cl)cc2)[C@@]1(C)O`, the “fold change (FC)” value was 0.
In the case of `Cc1cc(OCC(=O)NCc2nc[nH]n2)ccc1Cl`, the “fold change (FC)” value is reported as 0.
For `O=C(NCCc1cnc[nH]1)Nc1ccc(Cl)c(Cl)c1`, the “fold change (FC)” value was 0.
`CC1(C)NC(=O)N(C[C@H](O)COc2ccc(Cl)cc2)C1=O` was tested, and the “fold change (FC)” value was 0.
With `O=C(COC(=O)c1n[nH]c2ccccc12)Nc1ccc(Cl)cn1` the “fold change (FC)” value was 0.
In the case of `C[C@H](Sc1nc(N)cc(N)n1)C(=O)Nc1ccc(Cl)cc1`, the “fold change (FC)” value is reported as 0.
With `CC1(C)CC(NC(=O)C(=O)Nc2ccc3cc[nH]c3c2)CC(C)(C)N1` the “fold change (FC)” value was 0.
`CC1Sc2cc(C(=O)NC3CC(C)(C)NC(C)(C)C3)ccc2NC1=O` (stereo not drawn) was tested, and the “fold change (FC)” value was 0.
In the case of `CC1(C)CC(=NNC(=O)c2n[nH]c3c2CCCC3)CC(C)(C)N1`, the “fold change (FC)” value is reported as 0.
With `O=C(NCc1ccco1)C(=O)Nc1ccc(Br)cc1` the “fold change (FC)” value was 0.
For `CC1(C)CC(NC(=O)C(=O)NCCc2ccc(Cl)cc2)CC(C)(C)N1`, the “fold change (FC)” value was 0.
`O=C(Nc1ccc(Br)cc1)c1cc(CN2CCCC2)on1` was tested, and the “fold change (FC)” value was 0.
With `O=C(NCC1COc2ccccc2O1)C(=O)Nc1ccc(Br)cc1` (stereo not drawn) the “fold change (FC)” value was 0.
For `Cc1nn(C)cc1CN(C)CC(=O)Nc1ccc(Br)cc1`, the “fold change (FC)” value was 0.
`COc1cccc(N[C@@H](C)C(=O)Nc2ccc(Br)cc2)c1` was tested, and the “fold change (FC)” value was 0.
With `O=C(NCc1ccc2c(c1)OCO2)C(=O)Nc1ccc(Br)cc1` the “fold change (FC)” value was 0.
`COc1cccc(NC(=O)C(=O)Nc2ccc(Cl)cc2)c1` was tested, and the “fold change (FC)” value was 0.
With `O=C(CSCc1cc(O)[nH]n1)Nc1ccc(Br)cc1` the “fold change (FC)” value was 0.
For `CCN1CCCC1CNC(=O)C(=O)Nc1c(C(=O)OC)sc(C)c1C` (stereo not drawn), the “fold change (FC)” value was 0.
`O=C(Nc1ccc(Br)cc1)C(=O)Nc1cccc2ccccc12` was tested, and the “fold change (FC)” value was 0.
For `O=C(NCC1OCCc2ccccc21)C(=O)Nc1ccc(Br)cc1` (stereo not drawn), the “fold change (FC)” value was 0.
For `CC(CC(=O)Nc1ccc(Br)cc1)Nc1cccc(CO)c1` (stereo not drawn), the “fold change (FC)” value was 0.
For `COc1cccc(CNC(=O)C(=O)Nc2ccc(Cl)cc2)c1`, the “fold change (FC)” value was 0.
`O=C(NC[C@@H]1COC2(CCCC2)O1)C(=O)Nc1ccc(Cl)cc1` was tested, and the “fold change (FC)” value was 0.
With `CC(C)C1CCN(CCC(=O)Nc2ccc(Br)cc2)CC1` the “fold change (FC)” value was 0.
In the case of `Cc1cc(NC(=O)C(=O)c2c[nH]c3ccccc23)ccc1Br`, the “fold change (FC)” value is reported as 0.
`C[C@@H]1CN(CCC(=O)Nc2ccc(Br)cc2)C[C@H](C)O1` was tested, and the “fold change (FC)” value was 0.
In the case of `CCOC(=O)[C@H]1CCCN(CCC(=O)Nc2ccc(Br)cc2)C1`, the “fold change (FC)” value is reported as 0.
In the case of `C[C@H]1CCCN(CCC(=O)Nc2ccc(Cl)cc2)C1`, the “fold change (FC)” value is reported as 0.
In the case of `Cc1ccc(C(C)C)c(OCC(=O)NNC(=O)Nc2ccc(Cl)cc2)c1`, the “fold change (FC)” value is reported as 0.
`O=C(Nc1ccc(Cl)cc1)C(=O)c1c[nH]c2ccccc12` was tested, and the “fold change (FC)” value was 0.
